Columns and labels:
[1] = biological target: T1, human E3 ligase component cereblon (CRBN) (Homo sapiens, UniProt Q96SW2); experiment: Cereblon (CRBN) target engagement, NanoBRET TE Intracellular E3 Ligase Assay in transfected HEK-293T cells; settings: read-out: CRBN Binding EC50
T1 construct: host or cells: HEK293T
Experimental: HEK293T cells were harvested ca. 75% confluent with trypsin and plated (500,000 cells/well) in a 6-well tissue culture plate in 2 mL of Dulbecco's Modified Eagle Medium (DMEM)^+10% Fetal Bovine Serum (FBS) and incubated overnight at 37° C.
The NanoLuc-CRBN fusion vector (Nluc-CRBN; Promega) contains the coding region of human E3 ligase component cereblon (CRBN) fused to the C-terminus of the NanoLuc luciferase coding region. A mixture of 10 ng Nluc-CRBN and 990 ng DDB1 Expression Vector (Promega) was added to 125 μL Opti-Minimum Essential Medium (Opti-MEM™; Thermo Fisher) along with […] P3000 reagent (Thermo Fisher) in a 1.5 mL epppendorf tube. This solution was added to Lipofectamine 3000 transfection reagent (5 μL; Thermo Fisher) in Opti-MEM (125 μL), mixed well, and incubated for 15 minutes at room temperature. The transfection mixture was added dropwise to cells and incubated overnight at 37° C., 5% CO2. Following transfection, cells were washed once with PBS, and trypsin (250 μL) was added and incubated 30-45 see to dislodge cells. Complete media (2 mL) was added to resuspend cells to form a single cell suspension. Cells were centrifuged at 320×g for 5 min at room temperature, the supernatant was removed, and the cell pellet resuspended in Opti-MEM (3 mL; wash step repeated ×2). After final resuspension in 5 mL Opti-MEM, cells were counted and resuspended at 200,000 cells/mL in Opti-MEM.
Cereblon target engagement was monitored by Bioluminescence Resonance Energy Transfer (BRET) in transfected HEK-293T cells using the NanoBRET TE Intracellular E3 Ligase Assay (Promega). Briefly, 384-well plates (white opaque plates, Corning 3574, low binding surface) were seeded with transfected HEK-293T cells (38 μL/well). 2 μL of 10 μM CRBN tracer (diluted 1:5 in Tracer Dilution Buffer) was added to each well. Plates were centrifuged at 320×g for 1 min at room temperature. Test compounds were added in a 11-point dilution series (typically 10 μM to 100 pM) using a TECAN D300e Digital Dispenser. Plates were shaken for 2 minutes on a microplate shaker to mix compounds. Plates were centrifuged at 320×g for 1 min at room temperature, and subsequently incubated for 2 hours at 37° C.
After incubation, plates were allowed to cool to room temperature for 15 minutes. 20 μL of 3× Complete NanoBRET™ Nano-Glo® Substrate plus Inhibitor Solution (Promega, 1:166 Substrate and 1:500 dilution of Extracellular NanoLuc® Inhibitor diluted in Opti-MEM) were added to each well. Plates were incubated with shaking at room temperature for 3 minutes covered with foil. Plates were read on a CLARIOstar microplate reader (BMG LabTech), measuring at 450 nm (donor emission) and 610 nm (acceptor emission). The IC50 values were determined by regression to best fit four-parameter logistic curves using GraphPad Prism.

IKZF2 (Helios) [2] = biological target: T2, IKZF2 (Helios) (Homo sapiens, UniProt Q9UKS7); experiment: IKZF2 reporter degradation assay (HEK 293T IKZF2-mNeonGreen reporter cell line); assay type: cell-based; settings: HEK 293T IKZF2-mNeonGreen reporter, 24 hours incubation
T2 construct: Leu-Asp junction (codons ctcgac before the linker); mScarlet (behind P2A) (C, cleaved yes); expressed in transfected cells
Source text: (§1) Polycistronic plasmids were constructed for the mammalian expression of fluorescent reporter fusions of human transcription factors IKZF1 (Ikaros), IKZF2 (Helios), and IKZF3 (Aiolos). The respective protein sequences had their C-terminal end joined to a GGGGS linker repeated three times followed by mNeonGreen, P2A sequence, and mScarlet. The DNA sequences of the open reading frames are as follows:
(§2) IKZF1, IKZF2, and IKZF3 constructs were cloned into the UCOE Hygromycin expression vectors (Millipore Sigma). Reporter constructs were transfected using cationic lipid reagents into adherent HEK 293T cells and stable integrants were selected by treatment with 200 μg/mL hygromycin B. Clonal populations were obtained from the population of stable integrants either by limiting dilution or fluorescence activated cell sorting.
(§3) The clonal stable cell lines were maintained under constant 200 μg/mL hygromycin B selection while being passaged for use in the degradation assays. […] The fluorescence intensity of the IKZF1/2/3-mNeonGreen (FITC channel) and mScarlet (PE channel) reporters were routinely analyzed by flow cytometry to confirm consistent expression levels between experiments.
(§4) The IKZF1/IKZF2/IKZF3 degradation assays were carried out by harvesting the HEK 293T reporter cell lines and resuspending the cells in media formulated for reduced background fluorescence (FluoroBrite; Thermo Fisher). The respective cell lines were seeded at a density of 4000 cells/well into black-walled 384-well optical grade assay tissue culture plates. The cells were incubated overnight at 37° C. to allow for attachment to the assay plate. Dilutions of the compounds were prepared in DMSO from 10 mM compound stocks. The assay plates were treated with appropriate concentrations of the compounds by dispensing the DMSO dilutions in quadruplicate wells with an upper limit of 0.5% final DMSO.
(§5) After 24 hours incubation with the compounds, the assay plates were imaged on an ImageXpress Pico microscopy system (cells maintained at 37° C. during imaging) to obtain the fluorescent readouts. The assay plates were imaged in the FITC and Tetramethylrhodamine (TRITC) channels to obtain the mNeonGreen fluorescence intensity (reporter degradation data) and mScarlet fluorescence intensity (for cell segmentation). 293T-IKZF1 and 293T-IKZF3 reporter cell lines were imaged with exposures of 500 milliseconds (ms) for both FITC and TRITC channels, while the 293T-IKZF2 reporter cell line was imaged with exposures of 1000 ms for FITC and 1250 ms for TRITC. The resulting data was analyzed with Cell Reporter Xpress software using the 2-channel cell scoring analysis with a “percent positive” readout. The TRITC channel was selected for the “nuclei” segmentation with a threshold of 20 while the FITC channel was selected for the “Marker 1” segmentation and a threshold of 100 for the IKZF1 and IKZF3 reporter lines. […] The minimum segmentation width was set to 6 micrometers and the maximum segmentation width was set to 15 micrometers for all cell lines. The DC50 calculations were determined by regression to best fit four-parameter logistic curves using GraphPad Prism.

IKZF2 (Helios) [3] = biological target: T3, IKZF2 (Helios) (Homo sapiens, UniProt Q96SW2+Q9UKS7); experiment: as above; assay type: cell-based; settings: @ 1 μM, HEK 293T IKZF2-mNeonGreen reporter, 24 hours incubation; for inhibition at 1 µM: HEK-293T, 24 h
T3 construct: Leu-Asp junction (codons ctcgac before the linker); mScarlet (behind P2A) (C, cleaved yes); expressed in transfected cells
Source text: as §1, §2, §3, §4, §5

IKZF3 (Aiolos) = biological target: T4, IKZF3 (Aiolos) (Homo sapiens, UniProt Q9UKT9); experiment: IKZF3 reporter degradation assay (HEK 293T IKZF3-mNeonGreen reporter cell line); assay type: cell-based; settings: HEK 293T IKZF3-mNeonGreen reporter, 24 hours incubation
T4 construct: Leu-Asp junction (codons ctcgac before the linker); mScarlet (behind P2A) (C, cleaved yes); expressed in transfected cells
Source text: as §1, §2, §3, §4, §5

T3 sequence (Q9UKS7 whole entry): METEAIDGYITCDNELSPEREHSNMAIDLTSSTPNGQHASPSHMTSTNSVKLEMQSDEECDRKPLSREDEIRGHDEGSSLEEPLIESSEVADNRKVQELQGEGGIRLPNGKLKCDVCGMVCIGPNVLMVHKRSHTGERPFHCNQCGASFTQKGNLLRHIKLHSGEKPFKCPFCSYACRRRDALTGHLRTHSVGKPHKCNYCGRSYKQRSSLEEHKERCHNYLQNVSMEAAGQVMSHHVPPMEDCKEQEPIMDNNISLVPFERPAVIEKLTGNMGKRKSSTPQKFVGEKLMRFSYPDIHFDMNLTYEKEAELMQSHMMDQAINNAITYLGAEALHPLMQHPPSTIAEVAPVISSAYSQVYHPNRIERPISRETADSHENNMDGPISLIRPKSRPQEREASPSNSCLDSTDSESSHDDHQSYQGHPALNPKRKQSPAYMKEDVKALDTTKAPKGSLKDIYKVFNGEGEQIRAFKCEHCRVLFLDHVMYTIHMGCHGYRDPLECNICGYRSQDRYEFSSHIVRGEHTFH
T3 sequence (Q96SW2 whole entry): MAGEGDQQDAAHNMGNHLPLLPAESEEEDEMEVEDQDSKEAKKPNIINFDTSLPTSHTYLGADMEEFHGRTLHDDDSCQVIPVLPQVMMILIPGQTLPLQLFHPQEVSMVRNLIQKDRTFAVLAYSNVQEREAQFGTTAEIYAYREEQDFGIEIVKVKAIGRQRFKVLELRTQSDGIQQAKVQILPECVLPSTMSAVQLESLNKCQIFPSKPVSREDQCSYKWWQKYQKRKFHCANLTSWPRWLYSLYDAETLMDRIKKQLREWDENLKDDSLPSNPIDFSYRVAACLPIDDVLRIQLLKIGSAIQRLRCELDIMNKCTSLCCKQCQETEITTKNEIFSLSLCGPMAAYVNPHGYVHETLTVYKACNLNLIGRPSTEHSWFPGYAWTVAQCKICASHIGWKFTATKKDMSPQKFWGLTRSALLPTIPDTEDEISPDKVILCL
T3 sequence (Q16531 whole entry partner): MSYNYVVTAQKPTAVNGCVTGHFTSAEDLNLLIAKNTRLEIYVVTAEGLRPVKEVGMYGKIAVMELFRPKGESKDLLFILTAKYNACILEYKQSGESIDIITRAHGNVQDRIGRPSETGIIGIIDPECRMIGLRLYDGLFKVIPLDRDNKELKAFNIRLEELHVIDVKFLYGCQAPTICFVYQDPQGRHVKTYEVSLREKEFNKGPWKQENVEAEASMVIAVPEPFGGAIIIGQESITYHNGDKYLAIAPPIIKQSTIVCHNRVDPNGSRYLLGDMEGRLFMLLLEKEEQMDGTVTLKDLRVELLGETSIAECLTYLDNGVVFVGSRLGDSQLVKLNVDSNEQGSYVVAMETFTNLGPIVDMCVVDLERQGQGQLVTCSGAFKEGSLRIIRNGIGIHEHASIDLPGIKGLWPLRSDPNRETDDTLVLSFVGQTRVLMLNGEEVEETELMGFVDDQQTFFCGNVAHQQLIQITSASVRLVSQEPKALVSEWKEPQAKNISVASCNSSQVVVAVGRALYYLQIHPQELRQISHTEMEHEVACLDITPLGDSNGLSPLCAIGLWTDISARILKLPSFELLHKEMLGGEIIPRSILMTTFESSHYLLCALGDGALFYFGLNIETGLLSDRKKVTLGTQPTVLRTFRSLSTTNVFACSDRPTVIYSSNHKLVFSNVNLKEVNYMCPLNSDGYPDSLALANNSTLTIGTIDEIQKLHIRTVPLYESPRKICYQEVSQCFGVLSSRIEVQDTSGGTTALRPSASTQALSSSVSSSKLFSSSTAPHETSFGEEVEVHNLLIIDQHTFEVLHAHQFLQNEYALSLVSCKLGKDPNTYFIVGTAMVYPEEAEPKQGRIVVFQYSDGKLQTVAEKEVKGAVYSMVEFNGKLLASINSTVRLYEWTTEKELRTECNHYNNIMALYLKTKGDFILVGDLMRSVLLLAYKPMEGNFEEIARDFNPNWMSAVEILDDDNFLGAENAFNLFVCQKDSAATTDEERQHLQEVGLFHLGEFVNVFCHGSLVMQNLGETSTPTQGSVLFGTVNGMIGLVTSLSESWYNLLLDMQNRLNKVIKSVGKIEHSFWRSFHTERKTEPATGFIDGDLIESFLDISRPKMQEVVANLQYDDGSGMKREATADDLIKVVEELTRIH
T2 sequence (Q9UKS7 whole entry): as the sequence (Q9UKS7 whole entry) above
T2 sequence (Q96SW2 whole entry, further chain): as the sequence (Q96SW2 whole entry) above
T2 sequence (Q16531 whole entry partner): as the sequence (Q16531 whole entry partner) above
T1 sequence (Q96SW2 whole entry): as the sequence (Q96SW2 whole entry) above
T1 sequence (Q16531 whole entry partner): as the sequence (Q16531 whole entry partner) above
T4 sequence (Q96SW2 whole entry partner): as the sequence (Q96SW2 whole entry) above
T4 sequence (Q16531 whole entry partner): as the sequence (Q16531 whole entry partner) above
T4 sequence (Q9UKT9 whole entry): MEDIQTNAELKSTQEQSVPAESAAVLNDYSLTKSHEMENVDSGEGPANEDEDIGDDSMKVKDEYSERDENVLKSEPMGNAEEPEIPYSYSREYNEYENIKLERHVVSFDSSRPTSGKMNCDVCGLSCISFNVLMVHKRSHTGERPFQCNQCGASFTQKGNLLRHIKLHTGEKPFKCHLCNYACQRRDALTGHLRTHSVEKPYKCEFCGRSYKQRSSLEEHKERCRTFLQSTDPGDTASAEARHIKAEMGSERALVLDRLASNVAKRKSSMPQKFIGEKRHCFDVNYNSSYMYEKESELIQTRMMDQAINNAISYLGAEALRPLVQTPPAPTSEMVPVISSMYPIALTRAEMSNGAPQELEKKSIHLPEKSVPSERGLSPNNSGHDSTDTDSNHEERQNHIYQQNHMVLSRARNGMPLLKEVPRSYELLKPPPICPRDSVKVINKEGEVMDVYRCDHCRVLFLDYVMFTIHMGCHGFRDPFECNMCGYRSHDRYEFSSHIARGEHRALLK

SMILES	EC50 [1]	DC50 (IKZF2 (Helios) [2])	inhibition at 1 µM (IKZF2 (Helios) [3])	DC50 (IKZF3 (Aiolos))	inhibition at 1 µM (IKZF3 (Aiolos); HEK-293T, 24 h, @ 1 μM)	IKZF2 % Degradation @ 1 μM (IKZF2 (Helios) [3])
O=C1CCC(N2Cc3cc(O[C@H]4CCCC[C@@H]4N4CC(C5CCN(C6CCC6)CC5)C4)ccc3C2=O)C(=O)N1 (stereo partly drawn) [Compound 56-A, 3-(5-(((1S,2S)-2-(3-(1-cyclobutylpiperidin-4-yl)azetidin-1-yl)cyclohexyl)oxy)-1-oxoisoindolin-2-yl)piperidine-2,6-dione]	50 nM	30 nM	60.8%	> 30 µM		
CC(=O)N1CCC(C2CN([C@H]3CCCC[C@@H]3Oc3ccc4c(c3)CN(C3CCC(=O)NC3=O)C4=O)C2)CC1 (stereo partly drawn) [Compound 12-A, 3-(5-(((1S,2S)-2-(3-(1-acetylpiperidin-4-yl)azetidin-1-yl)cyclohexyl)oxy)-1-oxoisoindolin-2-yl)piperidine-2,6-dione]	52 nM	12 nM	83.1%	> 30 µM		
O=C1CCC(N2Cc3cc(O[C@H]4CCCC[C@@H]4N4CC(c5ncncc5Cl)C4)ccc3C2=O)C(=O)N1 (single isomer, unassigned) [Compound 93-B]	64 nM	21 nM		> 30 µM		78%
O=C1CCC(N2Cc3cc(O[C@H]4CCCC[C@@H]4N4CC(c5ccncc5Cl)C4)ccc3C2=O)C(=O)N1 (single isomer, unassigned) [Compound 95-B]	30 nM	23 nM	77.8%	> 30 µM		
CC1(C(=O)N2CCC(C3CN([C@H]4CCCC[C@@H]4Oc4ccc5c(c4)CN(C4CCC(=O)NC4=O)C5=O)C3)CC2)CCC1 (stereo partly drawn) [Compound 25-A, 3-(5-(((1S,2S)-2-(3-(1-(1-methylcyclobutane-1-carbonyl)piperidin-4-yl)azetidin-1-yl)cyclohexyl)oxy)-1-oxoisoindolin-2-yl)piperidine-2,6-dione]	4 nM	1 nM	84.4%	> 30 µM		
O=C1CCC(N2Cc3cc(O[C@H]4CCCC[C@@H]4N4CC(c5ccncc5F)C4)ccc3C2=O)C(=O)N1 (single isomer, unassigned) [Compound 102-B]	15 nM	10 nM	71.1%	> 30 µM		
O=C1CCC(N2Cc3cc(OC4CCCCC4N4CC(C(=O)N5CCCCC5)C4)ccc3C2=O)C(=O)N1 (single isomer, unassigned) [Compound 22-A, 3-(1-oxo-5-((2-(3-(piperidine-1-carbonyl)azetidin-1-yl)cyclohexyl)oxy)isoindolin-2-yl)piperidine-2,6-dione]	31 nM	11 nM	75.9%	> 30 µM		

The remaining lines, values ahead:

EC50 [1]	DC50 (IKZF2 (Helios) [2])	inhibition at 1 µM (IKZF2 (Helios) [3])	DC50 (IKZF3 (Aiolos))	inhibition at 1 µM (IKZF3 (Aiolos); HEK-293T, 24 h, @ 1 μM)	IKZF2 % Degradation @ 1 μM (IKZF2 (Helios) [3])	SMILES
10 nM	5 nM	94.8%	0.0441 µM	37.4%		O=C1CCC(N2Cc3cc(O[C@H]4CCCC[C@@H]4N4CC(c5ccc(C(F)(F)F)cn5)C4)ccc3C2=O)C(=O)N1 (single isomer, unassigned) [Compound 130-B]
13 nM	9 nM	58.6%	> 30 µM			O=C1CCC(N2Cc3cc(O[C@@H]4CCCC[C@@H]4N4CC(c5cc(Cl)ccn5)C4)ccc3C2=O)C(=O)N1 (mixture of isomers) [Compound 165-B, Rac-3-(5-(((cis)-2-(3-(4-chloropyridin-2-yl)azetidin-1-yl)cyclohexyl)oxy)-1-oxoisoindolin-2-yl)piperidine-2,6-dione]
32 nM	16 nM	73.4%	> 30 µM			O=C1CCC(N2Cc3cc(O[C@@H]4CCCC[C@@H]4N4CC(c5ccncc5F)C4)ccc3C2=O)C(=O)N1 (mixture of isomers) [Compound 153-B, Rac-3-(5-(((cis)-2-(3-(3-fluoropyridin-4-yl)azetidin-1-yl)cyclohexyl)oxy)-1-oxoisoindolin-2-yl)piperidine-2,6-dione]
22 nM	130 nM	28.6%	> 30 µM			O=C1CCC(N2Cc3cc(OC4CCCC4N4CC(c5ccc(C(F)(F)F)cn5)C4)ccc3C2=O)C(=O)N1 (stereo not shown) [Compound 147-B, 3-(1-oxo-5-((2-(3-(5-(trifluoromethyl)pyridin-2-yl)azetidin-1-yl)cyclopentyl)oxy)isoindolin-2-yl)piperidine-2,6-dione]
38 nM	20 nM		> 30 µM		42.4%	O=C1CCC(N2Cc3cc(O[C@@H]4CCCC[C@H]4N4CC(c5ccc(C(F)(F)F)cn5)C4)ccc3C2=O)C(=O)N1 (single isomer, unassigned) [Compound 129-B]
3 nM	41 nM	43.9%	> 30 µM			O=C1CCC(N2Cc3cc(O[C@H]4CCCC[C@@H]4N4CC(c5ccc6ccccc6n5)C4)ccc3C2=O)C(=O)N1 (mixture of isomers) [Compound 152-B, Rac-3-(1-oxo-5-(((trans)-2-(3-(quinolin-2-yl)azetidin-1-yl)cyclohexyl)oxy)isoindolin-2-yl)piperidine-2,6-dione]
65 nM	83 nM	50.9%	> 30 µM			O=C1CCC(N2Cc3cc(O[C@@H]4CCCC[C@H]4N4CC(c5ccc(C(F)(F)F)nc5)C4)ccc3C2=O)C(=O)N1 (single isomer, unassigned) [Compound 125-B]
34 nM	30 nM		> 30 µM		61.4%	O=C1CCC(N2Cc3cc(O[C@H]4CCCC[C@H]4N4CC(c5ccncc5)C4)ccc3C2=O)C(=O)N1 (single isomer, unassigned) [Compound 136-B]
